# Laboratory results reported in patent publication US11434242B2, “Dopamine-b-hydroxylase inhibitors” (BIAL-PORTELA & Cª, S.A., priority 2017, dated 2022).
# Marks after values point to notes of the source that are not given here.
# Biological target: T1, Dopamine beta hydroxylase (Homo sapiens, UniProt P09172)
# T1 construct: 125 μl of plasma; tissue Instituto Português do Sangue Transplantação; host or cells: human plasma from healthy donors
# T1 sequence (P09172 40-617 limits assumed): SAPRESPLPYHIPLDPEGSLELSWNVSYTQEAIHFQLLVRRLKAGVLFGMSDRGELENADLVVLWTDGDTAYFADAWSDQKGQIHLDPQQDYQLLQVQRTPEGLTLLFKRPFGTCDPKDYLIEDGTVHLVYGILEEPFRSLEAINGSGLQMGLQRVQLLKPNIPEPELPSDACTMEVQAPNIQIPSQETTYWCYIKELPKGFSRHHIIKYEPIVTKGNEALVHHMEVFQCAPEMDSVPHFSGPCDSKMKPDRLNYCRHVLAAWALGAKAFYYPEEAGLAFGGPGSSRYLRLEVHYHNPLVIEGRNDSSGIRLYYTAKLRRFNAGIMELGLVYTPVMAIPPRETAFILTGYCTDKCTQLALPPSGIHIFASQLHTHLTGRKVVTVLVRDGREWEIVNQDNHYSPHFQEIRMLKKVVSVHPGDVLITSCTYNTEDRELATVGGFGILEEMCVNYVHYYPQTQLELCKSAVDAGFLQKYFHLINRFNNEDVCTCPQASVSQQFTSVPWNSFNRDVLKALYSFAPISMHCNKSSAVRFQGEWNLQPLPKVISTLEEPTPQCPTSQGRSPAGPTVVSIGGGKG
# Test: Dopamine beta hydroxylase activity in human plasma
# Format: biochemical
# Conditions: for Plasma (1 μM), activity in % of control: inhibitor 1 μM
# In short: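 Octopamine production from tyramine over 45 min at 37° C, measured photometrically at 330 nm after SCX extraction and periodate oxidation against an octopamine standard curve, indicates plasma DβH activity. Compounds tested at final 10, 100 and 1000 nM in human plasma, pH 5.0 cofactor buffer, 10 min preincubation; results as % of control.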
SMILES,"Plasma (0.01 μM), activity in % of control (inhibitor 0.01 μM)","Plasma (0.01 μM), activity in % of control, re-test (asterisked) (inhibitor 0.01 μM, re-tested under the same experimental conditions, asterisked data believed to be correct)","Plasma (0.1 μM), activity in % of control (inhibitor 0.1 μM)","Plasma (0.1 μM), activity in % of control, re-test (asterisked) (inhibitor 0.1 μM, re-tested under the same experimental conditions, asterisked data believed to be correct)","Plasma (1 μM), activity in % of control"
"CS(=O)(=O)CCNCCc1[nH]c(=S)n2c1C[C@H](c1c(F)ccc(Br)c1F)C2 [Example 182, (R)-6-(3-bromo-2,6-difluorophenyl)-1-(2-((2-(methylsulfonyl)ethyl)amino)ethyl)-2,5,6,7-tetrahydro-3H-pyrrolo[1,2-c]imidazole-3-thione]",94.6 % of control,,71.0 % of control,,
"CN(C(=O)Cc1c2n(c(=S)n1C)C[C@@]1(c3cc(Cl)ccc3F)C[C@@H]21)C1CCOCC1 [Example 434, 2-((5aS,6aR)-5a-(5-chloro-2-fluorophenyl)-2-methyl-3-thioxo-2,3,5,5a,6,6a-hexahydrocyclopropa[3,4]pyrrolo[1,2-c]imidazol-1-yl)-N-methyl-N-(tetrahydro-2H-pyran-4-yl)acetamide]",52.5 % of control,,8.5 % of control,,
"O=C(Cc1[nH]c(=S)n2c1C[C@@H](c1c(F)ccc(Cl)c1F)C2)NC1CCCC1 [Example 84, (S)-2-(6-(3-chloro-2,6-difluorophenyl)-3-thioxo-2,5,6,7-tetrahydro-3H-pyrrolo[1,2-c]imidazol-1-yl)-N-cyclopentylacetamide]",,,24.5 % of control,,1.0 % of control
"Cl.Cn1c(CC(=O)Nc2ccncc2)c2n(c1=S)C[C@H](c1c(F)ccc(Cl)c1F)C2 [Example 287, (S)-2-(6-(3-chloro-2,6-difluorophenyl)-2-methyl-3-thioxo-2,5,6,7-tetrahydro-3H-pyrrolo[1,2-c]imidazol-1-yl)-N-(pyridin-4-yl)acetamide Hydrochloride]",66.8 % of control,,15.5 % of control,,
"CC(C)NC(=O)Cc1[nH]c(=S)n2c1[C@@H]1C[C@]1(c1cc(Cl)ccc1F)C2 [Example 67, 2-((5aS,6aR)-5a-(5-chloro-2-fluorophenyl)-3-thioxo-2,3,5,5a,6,6a-hexahydrocyclopropa[3,4]pyrrolo[1,2-c]imidazol-1-yl)-N-isopropylacetamide]",,,76.1 % of control,,13.2 % of control
"Fc1ccc(Br)c(F)c1[C@H]1Cc2c(CCN3CCC(F)(F)CC3)[nH]c(=S)n2C1 [Example 177, (R)-6-(3-bromo-2,6-difluorophenyl)-1-(2-(4,4-difluoropiperidin-1-yl)ethyl)-2,5,6,7-tetrahydro-3H-pyrrolo[1,2-c]imidazole-3-thione]",99.9 % of control,,77.1 % of control,,
"O=C(NCc1[nH]c(=S)n2c1C[C@@H](c1c(F)ccc(Cl)c1F)C2)C1CCCC1 [Example 221, (S)—N-((6-(3-chloro-2,6-difluorophenyl)-3-thioxo-2,5,6,7-tetrahydro-3H-pyrrolo[1,2-c]imidazol-1-yl)methyl)cyclopentanecarboxamide]",79.3 % of control,,30.0 % of control,,
"CN(C(=O)Cc1c2n(c(=S)n1C)C[C@@]1(c3c(F)ccc(Cl)c3F)C[C@@H]21)C1CCOCC1 [Example 443, 2-((5aS,6aR)-5a-(3-chloro-2,6-difluorophenyl)-2-methyl-3-thioxo-2,3,5,5a,6,6a-hexahydrocyclopropa[3,4]pyrrolo[1,2-c]imidazol-1-yl)-N-methyl-N-(tetrahydro-2H-pyran-4-yl)acetamide]",59.2 % of control,,11.5 % of control,,
"Cn1c(CC(=O)NC2CCOCC2)c2n(c1=S)C[C@@]1(c3cc(Cl)ccc3F)C[C@@H]21 [Example 313, 2-((5aS,6aR)-5a-(5-chloro-2-fluorophenyl)-2-methyl-3-thioxo-2,3,5,5a,6,6a-hexahydrocyclopropa[3,4]pyrrolo[1,2-c]imidazol-1-yl)-N-(tetrahydro-2H-pyran-4-yl)acetamide]",37.6 % of control,,9.6 % of control,,
"[2H]C([2H])([2H])n1c(CC(=O)NC2CCOCC2)c2n(c1=S)C[C@@]1(c3cc(Br)ccc3F)C[C@@H]21 [Example 463, 2-((5aS,6aR)-5a-(5-bromo-2-fluorophenyl)-2-(methyl-d)-3-thioxo-2,3,5,5a,6,6a-hexahydrocyclopropa[3,4]pyrrolo[1,2-c]imidazol-1-yl)-N-(tetrahydro-2H-pyran-4-yl)acetamide]",29.1 % of control,,3.7 % of control,,
"Cn1c(CC(=O)N[C@H]2CC[C@H](O)CC2)c2n(c1=S)C[C@@]1(c3cc(Br)ccc3F)C[C@@H]21 [Example 325, 2-((5aS,6aR)-5a-(5-bromo-2-fluorophenyl)-2-methyl-3-thioxo-2,3,5,5a,6,6a-hexahydrocyclopropa[3,4]pyrrolo[1,2-c]imidazol-1-yl)-N-((1r,4R)-4-hydroxycyclohexyl)acetamide]",34.2 % of control,,3.8 % of control,,

# Results, then the compound that gave them:
"Plasma (0.01 μM), activity in % of control (inhibitor 0.01 μM)","Plasma (0.01 μM), activity in % of control, re-test (asterisked) (inhibitor 0.01 μM, re-tested under the same experimental conditions, asterisked data believed to be correct)","Plasma (0.1 μM), activity in % of control (inhibitor 0.1 μM)","Plasma (0.1 μM), activity in % of control, re-test (asterisked) (inhibitor 0.1 μM, re-tested under the same experimental conditions, asterisked data believed to be correct)","Plasma (1 μM), activity in % of control",SMILES
67.0 % of control,94.0* % of control,17.0 % of control,53.3* % of control,,"Cn1c(CC(=O)NCC(F)(F)F)c2n(c1=S)C[C@@H](c1c(F)c(F)cc(F)c1F)C2 [Example 315, (R)-2-(2-methyl-6-(2,3,5,6-tetrafluorophenyl)-3-thioxo-2,5,6,7-tetrahydro-3H-pyrrolo[1,2-c]imidazol-1-yl)-N-(2,2,2-trifluoroethyl)acetamide]"
98.2 % of control,,51.8 % of control,,,"Cn1c(CC(=O)N2CCC[C@H]2C(F)(F)F)c2n(c1=S)C[C@@H](c1c(F)ccc(F)c1F)C2 [Example 248, 2-((R)-2-methyl-3-thioxo-6-(2,3,6-trifluorophenyl)-2,5,6,7-tetrahydro-3H-pyrrolo[1,2-c]imidazol-1-yl)-1-((S)-2-(trifluoromethyl)pyrrolidin-1-yl)ethan-1-one]"
46.7 % of control,,5.1 % of control,,,"Fc1ccc(F)c([C@H]2Cc3c(CCCN4CCCC4)[nH]c(=S)n3C2)c1F [Example 478, (R)-1-(3-(pyrrolidin-1-yl)propyl)-6-(2,3,6-trifluorophenyl)-2,5,6,7-tetrahydro-3H-pyrrolo[1,2-c]imidazole-3-thione hydrofluoride]"
49.9 % of control,,7.0 % of control,,,"Cn1c(CC(=O)N[C@@H]2CCCOC2)c2n(c1=S)C[C@H](c1c(F)ccc(Cl)c1F)C2 [Example 327, 2-((S)-6-(3-chloro-2,6-difluorophenyl)-2-methyl-3-thioxo-2,5,6,7-tetrahydro-3H-pyrrolo[1,2-c]imidazol-1-yl)-N—((R)-tetrahydro-2H-pyran-3-yl)acetamide]"
112.6 % of control,,64.4 % of control,,,"Cn1c(CC(=O)O)c2n(c1=S)C[C@H](c1c(F)ccc(F)c1F)C2 [Example 409, (S)-2-(2-methyl-3-thioxo-6-(2,3,6-trifluorophenyl)-2,5,6,7-tetrahydro-3H-pyrrolo[1,2-c]imidazol-1-yl)acetic Acid]"
80.8 % of control,,71.1 % of control,,,"CN1CCC(NC(=O)Cc2c3n(c(=S)n2C)C[C@@H](c2c(F)ccc(F)c2F)C3)C1=O (stereo partly drawn) [Example 388, N-(1-methyl-2-oxopyrrolidin-3-yl)-2-((R)-2-methyl-3-thioxo-6-(2,3,6-trifluorophenyl)-2,5,6,7-tetrahydro-3H-pyrrolo[1,2-c]imidazol-1-yl)acetamide]"
66.6 % of control,,16.5 % of control,,,"Cn1c(CC(=O)N[C@@H]2CCNC2=O)c2n(c1=S)C[C@H](c1c(F)ccc(Br)c1F)C2 [Example 342, 2-((S)-6-(3-bromo-2,6-difluorophenyl)-2-methyl-3-thioxo-2,5,6,7-tetrahydro-3H-pyrrolo[1,2-c]imidazol-1-yl)-N—((R)-2-oxopyrrolidin-3-yl)acetamide]"
65.6 % of control,,13.5 % of control,,,"Cn1c(CC(=O)N[C@H]2CCOC2)c2n(c1=S)C[C@H](c1c(F)ccc(Br)c1F)C2 [Example 459, 2-((S)-6-(3-bromo-2,6-difluorophenyl)-2-methyl-3-thioxo-2,5,6,7-tetrahydro-3H-pyrrolo[1,2-c]imidazol-1-yl)-N—((S)-tetrahydrofuran-3-yl)acetamide]"
